This note sets out measurements from patent US20260070945A1, “MACROCYCLIC IMMUNOMODULATORS” (Bristol-Myers Squibb Company, priority 2022, published 2026).

*1 amine or outer side, *2 acyl side, *3 side chain or, on linkers, in order; H or OH if unused. Where a SMILES comes first, the peptide text is derived from it. Bridges are numbered along the chain shown (N, C = ends). [ ]: non-standard residue; d: D form. The star is where a group is joined. ξ: configuration not given here. Phe(4-COOH) = N[C@@H](Cc1ccc(C(=O)O)cc1)C(=O)O; Bip = N[C@@H](Cc1ccc(-c2ccccc2)cc1)C(=O)O; Phe(3-Me) = Cc1cccc(C[C@H](N)C(=O)O)c1; γGlu = O=C(O)[C@H](CCC(=O)[*:2])N[*:1]; hArg = N=C(N)NCCCC[C@H](N)C(=O)O; 4Pal = N[C@@H](Cc1ccncc1)C(=O)O; Cha = N[C@@H](CC1CCCCC1)C(=O)O; Ile(3ξ) = CCC(C)[C@H](N)C(=O)O; Thr(3ξ) = CC(O)[C@H](N)C(=O)O; Ala(CN) = N#CC[C@H](N)C(=O)O; 12Ado = NCCCCCCCCCCCC(=O)O; Carboxymethyl = O=C(O)C*; NMeA = CN[C@@H](C)C(=O)O; Orn = NCCC[C@H](N)C(=O)O; dDap = NC[C@@H](N)C(=O)O; Aun = NCCCCCCCCCCC(=O)O; Dab = NCC[C@H](N)C(=O)O; Dap = NC[C@H](N)C(=O)O; AEEA = NCCOCCOCC(=O)O

In general, IC50 refers to the point on the concentration scale where inhibition reaches its midpoint.

T1 sequence (Q15116 25-288): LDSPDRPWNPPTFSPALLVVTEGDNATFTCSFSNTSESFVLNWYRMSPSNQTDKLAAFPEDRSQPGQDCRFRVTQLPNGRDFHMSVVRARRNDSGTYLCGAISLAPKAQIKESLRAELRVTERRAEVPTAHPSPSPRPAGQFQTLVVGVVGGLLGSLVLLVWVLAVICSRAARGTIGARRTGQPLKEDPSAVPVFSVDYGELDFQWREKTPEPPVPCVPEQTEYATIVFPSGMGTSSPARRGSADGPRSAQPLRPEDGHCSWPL

This assay has as its target T1, PD-1/PD-L1 interaction (PE-labeled human PD-L1-Ig binding to Jurkat cell line over-expressing human PD-1) (Homo sapiens, UniProt Q15116).
T1 construct: expressed in transfected cells; host or cells: Jurkat
The assay is described as follows: Jurkat-PD-1 Cell Binding High-Content Screening Assay (CBA). To be noted: Jurkat-hPD-1 cells, PE-labeled PD-L1-Ig 20 nM final; read-out: Jurkat HPD1 PDL1 IC50. The essentials: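 High-content imaging read-out of PE-PD-L1-Ig binding (20 nM final, 1 h) to Jurkat-hPD-1 cells, after 2 h compound exposure at 37 °C in DMEM with 10% FCS. Nuclei counterstained with Hoechst 33342 after paraformaldehyde fixation.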
As for `CCC(C)[C@@H]1NC(=O)[C@H](Cc2ccc(-c3ccccc3)cc2)NC(=O)[C@H](CC(C)C)NC(=O)[C@H](Cc2c[nH]c3ccccc23)NC(=O)[C@H](CC(=O)O)NC(=O)[C@H](Cc2ccc(OCC(=O)O)cc2)NC(=O)[C@H](Cc2ccncc2)NC(=O)CSC[C@@H](C(=O)N[C@@H](CCCN)C(=O)NCCOCCOCC(=O)NCCCCCCCCCCC(=O)O)NC(=O)[C@H](C(C)O)NC(=O)[C@H](C(C)C)NC(=O)[C@H](CC2CCCCC2)NC(=O)[C@H](CCN)NC(=O)[C@@H](CC(C)C)NC(=O)[C@H](C)N(C)C1=O` (stereo partly drawn) [Example 2040] ({CH2CO}-[4Pal]Y(Carboxymethyl)DWL[Bip][Ile(3ξ)][NMeA][dL][Dab][Cha]V[Thr(3ξ)]C[Orn][AEEA][Aun]-OH; thioether N-14), the IC50 came to 8.7 nM. The result for `CCC(C)[C@@H]1NC(=O)[C@H](Cc2ccc(-c3ccccc3)cc2)NC(=O)[C@H](CC(C)C)NC(=O)[C@H](Cc2cccc(C)c2)NC(=O)[C@H](CC(=O)O)NC(=O)[C@H](Cc2ccc(OCC(=O)O)cc2)NC(=O)[C@H](Cc2ccc(OCC(=O)O)cc2)NC(=O)CSC[C@@H](C(=O)NCCOCCOCC(=O)N[C@@H](CCC(=O)NCCCCCCCCCCC(=O)O)C(=O)O)NC(=O)[C@H](CO)NC(=O)[C@H](C(C)C)NC(=O)[C@H](CC(C)C)NC(=O)[C@H](CCN)NC(=O)[C@@H](CC(C)C)NC(=O)[C@H](C)N(C)C1=O` (stereo partly drawn) [Example 2043] ({CH2CO}-Y(Carboxymethyl)Y(Carboxymethyl)D[Phe(3-Me)]L[Bip][Ile(3ξ)][NMeA][dL][Dab]LVSC[AEEA][γGlu][Aun]-OH; thioether N-14) reads 17.4 nM; that for `CCC(C)[C@@H]1NC(=O)[C@H](Cc2ccc(-c3ccccc3)cc2)NC(=O)[C@H](CC(C)C)NC(=O)[C@H](Cc2c[nH]c3ccccc23)NC(=O)[C@H](CC(=O)O)NC(=O)[C@H](Cc2ccc(OCC(=O)O)cc2)NC(=O)[C@H](CCCCNC(=N)N)NC(=O)CSC[C@@H](C(=O)NCCOCCOCC(=O)N[C@@H](CCC(=O)NCCCCCCCCCCC(=O)O)C(=O)O)NC(=O)[C@H](CO)NC(=O)[C@H](C(C)C)NC(=O)[C@H](CC(C)C)NC(=O)[C@H](CCN)NC(=O)[C@@H](CC(C)C)NC(=O)[C@H](C)N(C)C1=O` (stereo partly drawn) [Example 2044] ({CH2CO}-[hArg]Y(Carboxymethyl)DWL[Bip][Ile(3ξ)][NMeA][dL][Dab]LVSC[AEEA][γGlu][Aun]-OH; thioether N-14), 67 nM. The result for `CCC(C)[C@@H]1NC(=O)[C@H](Cc2ccc(-c3ccccc3)cc2)NC(=O)[C@H](CC(C)C)NC(=O)[C@H](Cc2c[nH]c3ccccc23)NC(=O)[C@H](CC(=O)O)NC(=O)[C@H](Cc2ccc(OCC(=O)O)cc2)NC(=O)[C@H](Cc2ccncc2)NC(=O)CSC[C@@H](C(=O)NCCOCCOCC(=O)N[C@@H](CCC(=O)NCCCCCCCCCCC(=O)O)C(=O)O)NC(=O)[C@H](CO)NC(=O)[C@H](C(C)C)NC(=O)[C@H](CC2CCCCC2)NC(=O)[C@H](CCN)NC(=O)[C@@H](CC(C)C)NC(=O)[C@H](C)N(C)C1=O` (stereo partly drawn) [Example 2045] ({CH2CO}-[4Pal]Y(Carboxymethyl)DWL[Bip][Ile(3ξ)][NMeA][dL][Dab][Cha]VSC[AEEA][γGlu][Aun]-OH; thioether N-14) reads 26.9 nM. On to `CCC(C)[C@@H]1NC(=O)[C@H](Cc2ccc(-c3ccccc3)cc2)NC(=O)[C@H](C(C)C)NC(=O)[C@H](Cc2c[nH]c3ccccc23)NC(=O)[C@H](CC(=O)O)NC(=O)[C@H](Cc2ccc(OCC(=O)O)cc2)NC(=O)[C@H](C(C)O)NC(=O)CSC[C@@H](C(=O)N[C@@H](CCCN)C(=O)N[C@@H](CCC(=O)NCCCCCCCCCCCC(=O)O)C(=O)O)NC(=O)[C@H](CO)NC(=O)[C@H](C(C)C)NC(=O)[C@H](CC2CCCCC2)NC(=O)[C@H](CCN)NC(=O)[C@@H](CC(C)C)NC(=O)[C@H](C)N(C)C1=O` (stereo partly drawn) [Example 2047] ({CH2CO}-[Thr(3ξ)]Y(Carboxymethyl)DWV[Bip][Ile(3ξ)][NMeA][dL][Dab][Cha]VSC[Orn][γGlu][12Ado]-OH; thioether N-14), for which the IC50 was 35.8 nM.

As to `CCC(C)[C@@H]1NC(=O)[C@H](Cc2ccc(-c3ccccc3)cc2)NC(=O)[C@H](C(C)C)NC(=O)[C@H](Cc2c[nH]c3ccccc23)NC(=O)[C@H](CC(=O)O)NC(=O)[C@H](Cc2ccc(O)cc2)NC(=O)[C@H](C(C)O)NC(=O)CSC[C@@H](C(=O)N[C@@H](CC(N)=O)C(=O)NCCOCCOCC(=O)NCCCCCCCCCCC(=O)O)NC(=O)[C@H](CO)NC(=O)[C@H](C(C)C)NC(=O)[C@H](CC(C)C)NC(=O)[C@H](CCN)NC(=O)[C@@H](CC(C)C)NC(=O)[C@H](C)N(C)C1=O` (stereo partly drawn) [Example 2050] ({CH2CO}-[Thr(3ξ)]YDWV[Bip][Ile(3ξ)][NMeA][dL][Dab]LVSCN[AEEA][Aun]-OH; thioether N-14), the IC50 amounted to 25.8 nM. The same measure for `CCC(C)[C@@H]1NC(=O)[C@H](Cc2ccc(-c3ccccc3)cc2)NC(=O)[C@H](C(C)C)NC(=O)[C@H](Cc2c[nH]c3ccccc23)NC(=O)[C@H](CC(=O)O)NC(=O)[C@H](Cc2ccc(OCC(=O)O)cc2)NC(=O)[C@H](C(C)O)NC(=O)CSC[C@@H](C(=O)N[C@H](CC(N)=O)C(=O)NCCOCCOCC(=O)N[C@@H](CCC(=O)N[C@@H](CCCN)C(=O)NCCCCCCCCCCC(=O)O)C(=O)O)NC(=O)[C@H](CO)NC(=O)[C@H](C(C)C)NC(=O)[C@H](CC(C)C)NC(=O)[C@H](CCN)NC(=O)[C@@H](CC(C)C)NC(=O)[C@H](C)N(C)C1=O` (stereo partly drawn) [Example 2051] ({CH2CO}-[Thr(3ξ)]Y(Carboxymethyl)DWV[Bip][Ile(3ξ)][NMeA][dL][Dab]LVSC[dN][AEEA][γGlu][Orn][Aun]-OH; thioether N-14): 109 nM; for `CCC(C)[C@@H]1NC(=O)[C@H](Cc2ccc(-c3ccccc3)cc2)NC(=O)[C@H](CC(C)C)NC(=O)[C@H](Cc2c[nH]c3ccccc23)NC(=O)[C@H](CC(=O)O)NC(=O)[C@H](Cc2ccc(OCC(=O)O)cc2)NC(=O)[C@H](C(C)O)NC(=O)CSC[C@@H](C(=O)NCCOCCOCC(=O)N[C@@H](CCCN)C(=O)NCCCCCCCCCCC(=O)O)NC(=O)[C@H](CO)NC(=O)[C@H](C(C)C)NC(=O)[C@H](CC(C)C)NC(=O)[C@H](CC(N)=O)NC(=O)[C@@H](CC(C)C)NC(=O)[C@H](C)N(C)C1=O` (stereo partly drawn) [Example 2052] ({CH2CO}-[Thr(3ξ)]Y(Carboxymethyl)DWL[Bip][Ile(3ξ)][NMeA][dL]NLVSC[AEEA][Orn][Aun]-OH; thioether N-14): 79.1 nM; for `CCC(C)[C@@H]1NC(=O)[C@H](Cc2ccc(-c3ccccc3)cc2)NC(=O)[C@H](CC(C)C)NC(=O)[C@H](Cc2c[nH]c3ccccc23)NC(=O)[C@H](CC(=O)O)NC(=O)[C@H](Cc2ccc(O)cc2)NC(=O)[C@H](Cc2ccncc2)NC(=O)CSC[C@@H](C(=O)N[C@@H](CN)C(=O)NCCOCCOCC(=O)NCCCCCCCCCCC(=O)O)NC(=O)[C@H](CO)NC(=O)[C@H](C(C)C)NC(=O)[C@H](CC(C)C)NC(=O)[C@H](CC(N)=O)NC(=O)[C@@H](CC(C)C)NC(=O)[C@H](C)N(C)C1=O` (stereo partly drawn) [Example 2053] ({CH2CO}-[4Pal]YDWL[Bip][Ile(3ξ)][NMeA][dL]NLVSC[Dap][AEEA][Aun]-OH; thioether N-14): 66.2 nM. The same measure for `CCC(C)[C@@H]1NC(=O)[C@H](Cc2ccc(-c3ccccc3)cc2)NC(=O)[C@H](CC(C)C)NC(=O)[C@H](Cc2c[nH]c3ccccc23)NC(=O)[C@H](CC(=O)O)NC(=O)[C@H](Cc2ccc(O)cc2)NC(=O)[C@H](CC#N)NC(=O)CSC[C@@H](C(=O)N[C@@H](CN)C(=O)NCCOCCOCC(=O)NCCCCCCCCCCC(=O)O)NC(=O)[C@H](CO)NC(=O)[C@H](C(C)C)NC(=O)[C@H](CC2CCCCC2)NC(=O)[C@H](CCN)NC(=O)[C@@H](CC(C)C)NC(=O)[C@H](C)N(C)C1=O` (stereo partly drawn) [Example 2054] ({CH2CO}-[Ala(CN)]YDWL[Bip][Ile(3ξ)][NMeA][dL][Dab][Cha]VSC[Dap][AEEA][Aun]-OH; thioether N-14): 14.3 nM. The same measure for `CCC(C)[C@@H]1NC(=O)[C@H](Cc2ccc(-c3ccccc3)cc2)NC(=O)[C@H](CC(C)C)NC(=O)[C@H](Cc2c[nH]c3ccccc23)NC(=O)[C@H](CC(=O)O)NC(=O)[C@H](Cc2ccc(O)cc2)NC(=O)[C@H](Cc2ccccc2)NC(=O)CSC[C@@H](C(=O)N[C@@H](CN)C(=O)NCCOCCOCC(=O)NCCCCCCCCCCC(=O)O)NC(=O)[C@H](CO)NC(=O)[C@H](C(C)C)NC(=O)[C@H](CC2CCCCC2)NC(=O)[C@H](CCN)NC(=O)[C@@H](CC(C)C)NC(=O)[C@H](C)N(C)C1=O` (stereo partly drawn) [Example 2055] ({CH2CO}-FYDWL[Bip][Ile(3ξ)][NMeA][dL][Dab][Cha]VSC[Dap][AEEA][Aun]-OH; thioether N-14): 101 nM; for `CCC(C)[C@@H]1NC(=O)[C@H](Cc2ccc(-c3ccccc3)cc2)NC(=O)[C@H](CC(C)C)NC(=O)[C@H](Cc2c[nH]c3ccccc23)NC(=O)[C@H](CC(=O)O)NC(=O)[C@H](Cc2ccc(C(=O)O)cc2)NC(=O)[C@H](Cc2ccc(OCC(=O)O)cc2)NC(=O)CSC[C@@H](C(=O)NCCOCCOCC(=O)N[C@H](CN)C(=O)NCCOCCOCC(=O)NCCCCCCCCCCC(=O)O)NC(=O)[C@H](CO)NC(=O)[C@H](C(C)C)NC(=O)[C@H](CC2CCCCC2)NC(=O)[C@H](CCN)NC(=O)[C@@H](CC(C)C)NC(=O)[C@H](C)N(C)C1=O` (stereo partly drawn) [Example 2056] ({CH2CO}-Y(Carboxymethyl)[Phe(4-COOH)]DWL[Bip][Ile(3ξ)][NMeA][dL][Dab][Cha]VSC[AEEA][dDap][AEEA][Aun]-OH; thioether N-14): 20 nM; for `CCC(C)[C@@H]1NC(=O)[C@H](Cc2ccc(-c3ccccc3)cc2)NC(=O)[C@H](CC(C)C)NC(=O)[C@H](Cc2c[nH]c3ccccc23)NC(=O)[C@H](CC(=O)O)NC(=O)[C@H](Cc2ccc(OCC(=O)O)cc2)NC(=O)[C@H](C(C)O)NC(=O)CSC[C@@H](C(=O)N[C@H](CC(N)=O)C(=O)NCCOCCOCC(=O)NCCCCCCCCCCC(=O)O)NC(=O)[C@H](CO)NC(=O)[C@H](C(C)C)NC(=O)[C@H](CC(C)C)NC(=O)[C@H](CCN)NC(=O)[C@@H](CC(C)C)NC(=O)[C@H](C)N(C)C1=O` (stereo partly drawn) [Example 2058] ({CH2CO}-[Thr(3ξ)]Y(Carboxymethyl)DWL[Bip][Ile(3ξ)][NMeA][dL][Dab]LVSC[dN][AEEA][Aun]-OH; thioether N-14): 59.9 nM.
